# Data: article PMC10514136, “Peptide-conjugated antimiRs improve myotonic dystrophy type 1 phenotypes by promoting endogenous MBNL1 expression” (Molecular Therapy. Nucleic Acids, 2023)
# Columns and labels:
# [1] = system: Mbnl1 mRNA; experiment: Mbnl1 transcript levels in muscle by qRT-PCR; type: in vivo, mouse; conditions: HSALR mice, 9.2 mg/kg (mean) i.v. every 2 weeks x3, day 45; quadriceps, vs PBS-treated HSALR
# Experimental: (§1) Total RNA from murine gastrocnemius and quadriceps muscle was isolated using the miRNeasy Mini Kit (QIAGEN, Hilden, Germany) according to the manufacturer's instructions. One microgram of RNA was digested with DNase I (Invitrogen, Carlsbad, CA) and reverse transcribed with SuperScript II (Invitrogen) using random hexanucleotides. For subsequent PCR reactions, 20 ng of cDNA was used with GoTaq polymerase (Promega). Specific primers were used to analyze the alternative splicing of Nfix, Atp2a1, and Clcn1 in mouse samples (both muscles). Gapdh levels established the endogenous reference levels using 0.2 ng of cDNA. […] PSR index was defined as value%SI minus X %DSI , divided by […] (SI, splicing inclusion of each sample; DSI, disease splicing inclusion; HSI, healthy splicing inclusion). Overall, PSR indicates the amount in both muscles analyzed. […] Commercial TaqMan probes (QIAGEN) were used for mouse (Mbnl1 and Mbnl2; FAM-labeled probes) and reference (GAPDH; MAX-labeled probe) genes. Results were normalized to Gapdh endogenous gene expression. Expression levels were measured using a QuantStudio 5 Real-Time PCR System (Applied Biosystems, Foster City, CA). […] Mouse handling and experimental procedures followed the European law regarding laboratory animal care and experimentation (2003/65/C.E.) and were approved by Conselleria de Agricultura, […] […]
# [2] = system: DM1 cells; experiment: Cell growth inhibition of DM1 cells, gymnosis vs transfection at EC50; type: cell-based, human; conditions: at the EC50 concentration
# Experimental: Immortalized MyoD-inducible (doxycycline) DM1 and control fibroblasts were kindly provided by Dr Furling (Institute of Myology, Paris, France).[38] For the activity assay, cells were seeded in 6-well plates at a density of 8 × 10^4 cells/well and grown in DMEM with 4.5 g/L glucose, 1% P/S, and 10% FBS (Sigma, St. Louis, MO). To transdifferentiate fibroblasts into myoblasts by inducing MyoD expression, the cells were plated in muscle differentiation medium containing DMEM with 4.5 g L^−1 glucose, 1% P/S, 2% horse serum, 1% apo-transferrin (10 mg mL^−1), 0.1% insulin (10 mg mL^−1), and 0.02% doxycycline (10 mg mL^−1). In all cases, the cells were grown at 37°C in a humidified atmosphere containing 5% CO2. Transdifferentiation was induced at day 0, and transfection was performed by lipofection with X-tremeGENE HP (Roche, Basel, Switzerland) 24 h later, with antimiRs and test compounds in the cell medium at different concentrations (from 0.4 nM to 5 μM). […]
# Cells seeded at 10^5 cells/mL in 96-well plates were transfected 24 h later with antimiRs as described previously.[20] After 96 h, cell proliferation was measured using the CellTiter 96 AQueous Non-Radioactive Cell Proliferation Assay (Promega, Madison, WI). Absorbance levels were determined using an Infinite M200 PRO plate reader (Tecan, Männedorf, Switzerland) and the TC50 was calculated using non-linear least-squares regression.
# [3] = system: Mbnl2 mRNA; experiment: Mbnl2 transcript levels in muscle by qRT-PCR; type: in vivo, mouse; conditions: HSALR mice, 9.2 mg/kg (mean) i.v. every 2 weeks x3, day 45; gastrocnemius, vs PBS-treated HSALR
# Experimental: as §1
# [4] = system: miR-23b; experiment: Functional miR-23b levels in gastrocnemius and quadriceps by qRT-PCR; type: in vivo, mouse; conditions: HSALR mice, 9.2 mg/kg (mean) i.v. every 2 weeks x3, day 45, vs PBS-treated HSALR
# Experimental: (§2) miRNA expression in muscle tissues was quantified using specific miRCURY-locked nucleic acid microRNA PCR primers (QIAGEN) according to the manufacturer's instructions. […] Expression levels were measured using a QuantStudio 5 Real-Time PCR System (Applied Biosystems, Foster City, CA). […] Mouse handling and experimental procedures followed the European law regarding laboratory animal care and experimentation (2003/65/C.E.) and were approved by Conselleria de Agricultura, […] (reference no. A1539961490857). We used homozygous transgenic HSA^LR (line 20 b) mice,[90] which were kindly provided by Dr Thornton (Rochester, NY) and were housed and bred in our animal facility. […] The mice were randomly allocated to the different treatments as follows: in each cage, each mouse was ear-marked as it was taken out, and each mouse was then assigned to a different treatment. Animals were injected biweekly intravenously with 150 μL of 1× PBS vehicle (controls; […] Mice were sacrificed 45 days after the first injection and the tissues of interest were frozen in liquid nitrogen for the molecular and histological assays. All the mice used in this study ranged from 5 to 5.5 months of age and all were males.
# [5] = system: miR-218; experiment: Functional miR-218 levels in gastrocnemius and quadriceps by qRT-PCR; type: in vivo, mouse; conditions: HSALR mice, 9.2 mg/kg (mean) i.v. every 2 weeks x3, day 45, vs PBS-treated HSALR
# Experimental: as §2
# [6] = system: HSALR mice; experiment: Electromyography, myotonia grade; type: in vivo, mouse; conditions: 9.2 mg/kg (mean) i.v. every 2 weeks x3, 5-point scale, quadriceps of both hind limbs
# Text: Mouse handling and experimental procedures followed the European law regarding laboratory animal care and experimentation (2003/65/C.E.) and were approved by Conselleria de Agricultura, […] (reference no. A1539961490857). We used homozygous transgenic HSA^LR (line 20 b) mice,[90] which were kindly provided by Dr Thornton (Rochester, NY) and were housed and bred in our animal facility. […] The mice were randomly allocated to the different treatments as follows: in each cage, each mouse was ear-marked as it was taken out, and each mouse was then assigned to a different treatment. Animals were injected biweekly intravenously with 150 μL of 1× PBS vehicle (controls; […] Mice were sacrificed 45 days after the first injection and the tissues of interest were frozen in liquid nitrogen for the molecular and histological assays. All the mice used in this study ranged from 5 to 5.5 months of age and all were males. Electromyography was performed before the treatment, at the halfway point and time of sacrifice under general anesthesia, as described previously.[18] The determination was performed blindly to eliminate bias.
substance,measurement,setting,value
"6aKC-23b (antisense GGUAAUCCCUGGCAAUGUGAU; all phosphorodiamidate morpholino (PMO), T or U not given here; Pip6aKC peptide conjugated)",Mbnl1 mRNA levels,[1],significant increases in quadriceps
"9b2KC-23b (antisense GGUAAUCCCUGGCAAUGUGAU; all phosphorodiamidate morpholino (PMO), T or U not given here; Pip9b2KC peptide conjugated)","toxicity (cell growth inhibition), gymnosis compared with transfection",[2],toxicity was significantly reduced
same,relative expression of Mbnl2,[3],2.65 fold
"TCTTACCTCAGTTACAATTTA-Pip9b2 [Scramble, reference compound]",levels of functional miR-23b,[4],did not reduce functional levels
same,levels of functional miR-218,[5],did not reduce functional levels
same,"myotonia (electromyography), change at day 45",[6],myotonia remained unchanged
